Measured values as given in patent US10899764B2, “Imidazo isoindole derivative, preparation method therefor and medical use thereof” (Jiangsu Hengrui Medicine Co., Ltd., priority 2015, dated 2021).
Counter-ions that a name gives are not always drawn. Like-named read-outs stand apart in the source and are kept apart here.

Key:
human TDO = human TDO (Homo sapiens (Human), UniProt P48775); experiment: Inhibition activity on human TDO (tryptophan 2,3-dioxygenase) (enzyme assay, absorbance at 480 nm); type: biochemical; details: read-out: IC50 for inhibiting the activity of human TDO
human TDO, sequence (P48775 whole entry): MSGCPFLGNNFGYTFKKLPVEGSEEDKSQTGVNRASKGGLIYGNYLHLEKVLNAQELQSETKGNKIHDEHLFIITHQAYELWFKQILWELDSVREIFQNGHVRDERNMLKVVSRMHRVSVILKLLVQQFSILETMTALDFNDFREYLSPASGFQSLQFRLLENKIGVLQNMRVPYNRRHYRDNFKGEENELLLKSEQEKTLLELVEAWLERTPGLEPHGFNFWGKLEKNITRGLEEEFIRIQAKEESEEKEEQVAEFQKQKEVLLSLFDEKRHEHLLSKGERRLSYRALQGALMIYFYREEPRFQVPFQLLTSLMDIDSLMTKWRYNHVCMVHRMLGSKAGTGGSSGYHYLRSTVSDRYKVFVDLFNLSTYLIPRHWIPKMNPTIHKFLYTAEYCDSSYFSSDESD
Procedure: Assay for Determining the Inhibition activity of the Compounds of the Present Invention on Human TDO (tryptophan 2,3-dioxygenase)
Human TDO activity was tested in vitro by the following method.
This method is used to determine the inhibition effect of the compounds of the present invention on the activity of human TDO.
Plasmids constructed with the human TDO gene were transferred to competent Escherichia coli Rosseta. The TDO gene was scaled-up by culturing in liquid LB (Luria-Bertani) medium [which was prepared per liter according to “Molecular Cloning A Laboratory Manual” (J. Sambrook, D. W. Russell)]). The bacteria were collected and lysed by ultrasonic waves. The purified TDO was obtained by eluting from a column.
For testing, 24 μL of enzyme (TDO) was diluted 100 times with 50 mM KPB to 2400 μL. The concentration of the enzyme solution was 2.6 ng/μL. A 96 well reaction plate (AXYGEN, PCR-96-FLT-C) (hereinafter referred to as the “reaction plate”) was added with the enzyme solution at 24 μL/well. The blank well was added with 24 μL of KPB [Preparation of KPB buffer (50 mM): 6.805 g of KH2PO4 was weighed using an analytical balance, and placed into a 1000 mL beaker, deionized water was added with a measuring cylinder to 900 mL, the pH was adjusted to 6.5 by 1M KOH, then the mixture was introduced into a 1 L measuring cylinder, and water was added to 1 L. It was stored at 4° C.]. Then, 1 μL of a compound or DMSO was added into the corresponding wells in the reaction plate. Preparation of solution A: 200 μL of 500 mM L-sodium ascorbate was added with 1050 μL of KPB, then the mixture was mixed uniformly for 3 seconds at the maximum speed in a turbine mixer. Solution B: 100 μL of 10 mM tryptophan was added with 100 μL of 100,000 unit/ml catalase, 5 μL of 10 mM methylene blue, and 1050 μL of KPB successively, then the mixture was mixed uniformly for 3 seconds at the maximum speed in a turbine mixer. Then, 1200 μL of solution A and 1200 μL of solution B were taken and mixed uniformly for 3 seconds at the maximum speed in a turbine mixer. The mixture was added to the reaction plate at 24 μL/well. The reaction plate was placed in a plate centrifuge and centrifuged for 15 seconds at the maximum speed, so that the reaction liquids converged to the bottom. The reaction mixture was mixed uniformly for 30 seconds on a shaker, and incubated for 1 hour at 37° C. in a constant temperature incubator. In the reaction plate, 30% (W/V) trichloroacetic acid was added at 10 μL/well, then the mixture was incubated for 15 minutes at 65° C. in a incubator. The reaction plate was centrifuged in a centrifuge for 5 minutes at 4700 RPM at room temperature. […] Then, 2% (W/V) 4-(dimethylamino)benzaldehyde/glacial acetic acid solution was added at 40 μL/well, then the mixture was mixed uniformly for 1 minute on a shaker at the maximum speed. After incubation for 2 minutes at room temperature, the absorbance at 480 nm was read on a Synergy HT Reader.
The inhibition activity of the compounds of the present invention on human TDO was tested by the assay described above.

[1] = Pharmacokinetics assay in SD rats after intragastrical administration; type: in vivo; details: both sexes, Sprague-Dawley, rat, plasma, po, intragastric, 10 mg/kg
Procedure: Sprague-Dawley (SD) rats were used as test animals. […] The pharmacokinetic behavior of the compounds of the present invention was studied and evaluated in rats.
Eight (8) healthy adult SD rats, half male and half female, were purchased from SINO-BRITSH SIPPR/BK LAB. […]
The samples were stored in heparinized test tubes, and centrifuged for 10 minutes at 3,500 rpm to separate blood plasma. The plasma samples were stored at −20° C. The rats were fed 2 hours after administration.
(§1) The concentration of the test compounds in rat plasma after intragastric administration was determined by LC/MS/MS.

[2] = Pharmacokinetics assay in c57bl/6 mice after intragastric administration; type: in vivo; details: mouse, plasma, po, female c57bl/6 mice, 3 mg/kg
Procedure: c57bl/6 mice were used as test animals. […] The pharmacokinetic behavior of the compounds of the present invention was studied and evaluated in c57bl/6 mice.
Eighteen (18) female c57bl/6 mice, were purchased from SINO-BRITSH SIPPR/BK LAB. ANIMAL LTD., CO.
The appropriate amount of each test compound was weighed, and added with 0.5% CMC-Na to prepare a 1 mg/mL suspension by an ultrasonic method.
After an overnight fast, 18 female c57bl/6 mice were equally divided into 2 groups, 9 mice per group, and administered the test compounds intragastrically at an administration volume of 0.2 mL/kg.
The samples were stored in heparinized test tubes, and centrifuged for 10 minutes at 3,500 rpm to separate blood plasma. The plasma samples were stored at −20° C.
as §1

[3] = read-out: Apparent Distribution Volume Vz/F
[4] = read-out: Mean Residence Time MRT

Row | IC50 (human TDO; purified recombinant human TDO, 1 hour at 37° C.) [nM] | Vd/F [2, 3] [L/kg] | AUC ([2]; read-out: Area Under Curve AUC) [ng·h/mL] | CL/F ([2]; read-out: Clearance CLz/F) [mL/min/kg] | half-life ([2]; read-out: Half-Life t½ (converted)) [h] | MRT [2, 4] [h] | Cmax ([2]; read-out: Plasma Conc. Cmax) [ng/mL] | SMILES | IC50 (human TDO) [nM] | Vd/F [1, 3] [L/kg] | AUC ([1]; read-out: Area Under Curve AUC) [ng·h/mL] | CL/F ([1]; read-out: Clearance CLz/F) [mL/min/kg] | half-life ([1]; read-out: Half-Life T½ (converted)) [h] | MRT [1, 4] [h] | Cmax ([1]; read-out: Plasma Conc. Cmax) [ng/mL]
1 | – | – | – | – | – | – | – | Fc1cccc(N2CCC(C3c4c(F)cccc4-c4cncn43)CC2)c1 (centres unmarked) [Example 3, 6-fluoro-5-(1-(3-fluorophenyl)piperidin-4-yl)-5H-imidazo[5,1-a]isoindole trifluoroacetate] | 371 | 14.1 ± 1.72 | 2620 ± 977 | 70.9 ± 26.4 | 2.54 ± 0.91 | 2.72 ± 0.36 | 1070 ± 524
2 | 42 | 1.28 | 4630 | 10.8 | 2.06 | 1.36 | 1670 | OCCn1cc(-c2ccc(N3CCC([C@H]4c5c(F)cccc5-c5cncn54)CC3)cc2)cn1 [Example 41, (S)-2-(4-(4-(4-(6-fluoro-5H-imidazo[5,1-a]isoindol-5-yl)piperidin-1-yl)phenyl)-1H-pyrazol-1-yl)ethanol] | – | – | – | – | – | – | –
